This assay concerns the target T1, human GLP-2 receptor (Homo sapiens, UniProt O95838, D470N).
T1 construct: expressed in transfected cells
T1 sequence (O95838 1-553 D470N): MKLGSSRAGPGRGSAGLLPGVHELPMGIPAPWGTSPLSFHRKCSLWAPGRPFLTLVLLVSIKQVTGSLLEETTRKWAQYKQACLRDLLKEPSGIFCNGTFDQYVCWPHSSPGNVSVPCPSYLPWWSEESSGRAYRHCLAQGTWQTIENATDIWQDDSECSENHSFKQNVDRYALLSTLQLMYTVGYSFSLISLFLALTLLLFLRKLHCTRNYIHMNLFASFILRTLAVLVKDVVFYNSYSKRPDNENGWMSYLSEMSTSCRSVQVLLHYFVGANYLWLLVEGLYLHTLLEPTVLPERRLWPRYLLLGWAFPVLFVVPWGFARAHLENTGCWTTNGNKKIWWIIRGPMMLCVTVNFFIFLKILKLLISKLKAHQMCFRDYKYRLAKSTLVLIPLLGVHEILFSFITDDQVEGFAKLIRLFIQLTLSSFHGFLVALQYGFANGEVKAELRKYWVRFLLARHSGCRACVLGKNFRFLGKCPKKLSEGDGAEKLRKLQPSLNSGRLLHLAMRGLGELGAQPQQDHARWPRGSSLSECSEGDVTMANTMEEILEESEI
In words: GLP-2 receptor potency assay (cAMP ALPHASCREEN, HEK293 cells stably expressing GLP-2 R). It counts as cell-based. The source says:
One useful in vitro assay for measuring GLP-1 and GLP-2 receptor activity is quantitation of cAMP, i.e. 3′-5′-cyclic adenosine monophosphate, which is a second messenger essential in many biological processes, and one of the most ubiquitous mechanisms for regulating cellular functions.
For subcloning into a mammalian expression vector, primers for subcloning were obtained from DNA-Technology, Risskov, Denmark. The 5′ and 3′ primers used for the PCR reaction include terminal restriction sites for cloning and the context of the 5′ primer is modified to a Kozak consensus without changing the sequence of the product encoded by the ORF. […] The generated PCR product was purified using GFX PCR and Gel band purification kit, digested with restriction enzymes and cloned into the mammalian expression vector using Rapid DNA Ligation Kit. Ligation reaction was transformed to XL10 Gold Ultracompetent cells and colonies were picked for DNA production using ENDOFREE® Plasmid maxi kit. Subsequent sequence analysis was conducted by MWG Eurofins, Germany.
HEK293 cells were transfected using the LIPOFECTAMINE® PLUS transfection method. The day before transfection, HEK293 cells were seeded in two T75 flasks at a density of 2×10^6 cells/T75 flask in cell culturing medium without antibiotics. On the day of transfection, cells were washed with 1× DPBS and medium was replaced with OPTI-MEM© to a volume of 5 mL/T75 flask before addition of LIPOFECTAMINE®-plasmid complexes were added gently and drop wise to the cells in T75 flasks and replaced with growth medium after 3 hours and again to growth medium supplemented with 500 μg/mL G418 after 24 hours. Following 4 weeks in G418 selection, clones were picked and tested in a functional GLP-2 receptor potency assay as described below.
The cAMP ALPHASCREEN® assay from Perkin Elmer was used to quantitate the cAMP response to activation of the GLP1 and GLP2 receptor, respectively. […] Data from test compounds eliciting an increase in the intracellular level of cAMP were normalized relative to the positive and negative control (vehicle) to calculate the EC50 and maximal response from the concentration response curve.

Setting [1] is: cAMP response, HEK293 cells expressing human GLP-2 R, read-out: EC50 GLP-2.

Where two headings read alike, the source gives them in different places. *1 amine or outer side, *2 acyl side, *3 side chain or, on linkers, in order; H or OH if unused. Where a SMILES comes first, the peptide text is derived from it. Side-chain parts run from the residue outwards. [ ]: non-standard residue; d: D form. The star is where a group is joined. C20 diacid = O=C(O)CCCCCCCCCCCCCCCCCCC(=O)*; γGlu = O=C(O)[C@H](CCC(=O)[*:2])N[*:1]; AEEA = NCCOCCOCC(=O)O; Aib = CC(C)(N)C(=O)O

For `CC[C@H](C)[C@H](NC(=O)[C@H](Cc1ccccc1)NC(=O)[C@H](CC(=O)O)NC(=O)[C@H](CCCNC(=N)N)NC(=O)[C@H](C)NC(=O)[C@H](C)NC(=O)[C@H](CCC(=O)O)NC(=O)[C@H](CCCCNC(=O)CC[C@H](NC(=O)CCCCCCCCCCCCCCCCC(=O)O)C(=O)O)NC(=O)[C@H](CC(=O)O)NC(=O)[C@H](CC(C)C)NC(=O)[C@@H](NC(=O)[C@@H](NC(=O)[C@H](C)NC(=O)[C@H](CC(C)C)NC(=O)[C@H](CCC(=O)O)NC(=O)[C@H](CO)NC(=O)[C@H](CO)NC(=O)[C@H](Cc1ccccc1)NC(=O)[C@@H](NC(=O)CNC(=O)[C@H](CCC(=O)O)NC(=O)C(C)(C)NC(=O)[C@@H](N)Cc1c[nH]cn1)[C@@H](C)O)[C@@H](C)O)[C@@H](C)CC)C(=O)N[C@@H](C)C(=O)N[C@@H](Cc1c[nH]c2ccccc12)C(=O)N[C@@H](CC(C)C)C(=O)N[C@H](C(=O)N[C@@H](CCC(=O)O)C(=O)N[C@@H](Cc1c[nH]cn1)C(=O)N[C@@H](CCCCN)C(=O)N[C@H](C(=O)N[C@H](C(=O)N[C@@H](CC(=O)O)C(=O)O)[C@@H](C)O)[C@@H](C)CC)[C@@H](C)CC` [Compound 1] (HELM PEPTIDE1{H.[Aib].E.G.T.F.S.S.E.L.A.T.I.L.D.K.E.A.A.R.D.F.I.A.W.L.I.E.H.K.I.T.D}|PEPTIDE2{[O=C(O)CCCCCCCCCCCCCCCCC(=O)[*:2]].[gGlu]}$PEPTIDE1,PEPTIDE2,16:R3-2:R2$$$V2.0), the EC50 under setting [1] worked out at 0.35 nM.
For the compound `CC[C@H](C)[C@H](NC(=O)[C@H](Cc1ccccc1)NC(=O)[C@H](CC(=O)O)NC(=O)[C@H](CCCNC(=N)N)NC(=O)[C@H](C)NC(=O)[C@H](C)NC(=O)[C@H](CCC(=O)O)NC(=O)[C@H](CCCCNC(=O)CC[C@H](NC(=O)CCCCCCCCCCCCCCCCC(=O)O)C(=O)O)NC(=O)[C@H](CC(=O)O)NC(=O)[C@H](CC(C)C)NC(=O)[C@@H](NC(=O)[C@@H](NC(=O)[C@H](C)NC(=O)[C@H](CC(C)C)NC(=O)[C@H](CCC(=O)O)NC(=O)[C@H](CO)NC(=O)[C@@H](NC(=O)[C@H](Cc1ccccc1)NC(=O)[C@@H](NC(=O)CNC(=O)[C@H](CCC(=O)O)NC(=O)C(C)(C)NC(=O)[C@@H](N)Cc1c[nH]cn1)[C@@H](C)O)[C@@H](C)O)[C@@H](C)O)[C@@H](C)CC)C(=O)N[C@@H](C)C(=O)N[C@@H](Cc1c[nH]c2ccccc12)C(=O)N[C@@H](CC(C)C)C(=O)N[C@H](C(=O)N[C@@H](CCC(=O)O)C(=O)N[C@@H](Cc1c[nH]cn1)C(=O)N[C@@H](CCCCN)C(=O)N[C@H](C(=O)N[C@H](C(=O)N[C@@H](CC(=O)O)C(=O)O)[C@@H](C)O)[C@@H](C)CC)[C@@H](C)CC` [Compound 3] (HELM PEPTIDE1{H.[Aib].E.G.T.F.T.S.E.L.A.T.I.L.D.K.E.A.A.R.D.F.I.A.W.L.I.E.H.K.I.T.D}|PEPTIDE2{[O=C(O)CCCCCCCCCCCCCCCCC(=O)[*:2]].[gGlu]}$PEPTIDE1,PEPTIDE2,16:R3-2:R2$$$V2.0), under setting [1], the concentration for a half-maximal effect (EC50) is 0.33 nM.
As for `CC[C@H](C)[C@H](NC(=O)[C@H](Cc1ccccc1)NC(=O)[C@H](CC(=O)O)NC(=O)[C@H](CCCNC(=N)N)NC(=O)[C@H](C)NC(=O)[C@H](C)NC(=O)[C@H](CCCCN)NC(=O)[C@H](CCCCNC(=O)CC[C@H](NC(=O)CCCCCCCCCCCCCCCCC(=O)O)C(=O)O)NC(=O)[C@H](CC(=O)O)NC(=O)[C@H](CC(C)C)NC(=O)[C@@H](NC(=O)[C@@H](NC(=O)[C@H](C)NC(=O)[C@H](CC(C)C)NC(=O)[C@H](CCC(=O)O)NC(=O)[C@H](CO)NC(=O)[C@H](CO)NC(=O)[C@H](Cc1ccccc1)NC(=O)[C@@H](NC(=O)CNC(=O)[C@H](CCC(=O)O)NC(=O)C(C)(C)NC(=O)[C@@H](N)Cc1c[nH]cn1)[C@@H](C)O)[C@@H](C)O)[C@@H](C)CC)C(=O)N[C@@H](C)C(=O)N[C@@H](Cc1c[nH]c2ccccc12)C(=O)N[C@@H](CC(C)C)C(=O)N[C@H](C(=O)N[C@@H](CCC(=O)O)C(=O)N[C@@H](Cc1c[nH]cn1)C(=O)N[C@@H](CCCCN)C(=O)N[C@H](C(=O)N[C@H](C(=O)N[C@@H](CC(=O)O)C(=O)O)[C@@H](C)O)[C@@H](C)CC)[C@@H](C)CC` [Compound 4] (HELM PEPTIDE1{H.[Aib].E.G.T.F.S.S.E.L.A.T.I.L.D.K.K.A.A.R.D.F.I.A.W.L.I.E.H.K.I.T.D}|PEPTIDE2{[O=C(O)CCCCCCCCCCCCCCCCC(=O)[*:2]].[gGlu]}$PEPTIDE1,PEPTIDE2,16:R3-2:R2$$$V2.0), the EC50 turned out to be 0.087 nM.
For the compound `CC[C@H](C)[C@H](NC(=O)[C@H](Cc1ccccc1)NC(=O)[C@H](CC(=O)O)NC(=O)[C@H](CCCNC(=N)N)NC(=O)[C@H](C)NC(=O)[C@H](C)NC(=O)[C@H](CC(C)C)NC(=O)[C@H](CCCCNC(=O)CC[C@H](NC(=O)CCCCCCCCCCCCCCCCC(=O)O)C(=O)O)NC(=O)[C@H](CC(=O)O)NC(=O)[C@H](CC(C)C)NC(=O)[C@@H](NC(=O)[C@@H](NC(=O)[C@H](C)NC(=O)[C@H](CC(C)C)NC(=O)[C@H](CCC(=O)O)NC(=O)[C@H](CO)NC(=O)[C@@H](NC(=O)[C@H](Cc1ccccc1)NC(=O)[C@@H](NC(=O)CNC(=O)[C@H](CCC(=O)O)NC(=O)C(C)(C)NC(=O)[C@@H](N)Cc1c[nH]cn1)[C@@H](C)O)[C@@H](C)O)[C@@H](C)O)[C@@H](C)CC)C(=O)N[C@@H](C)C(=O)N[C@@H](Cc1c[nH]c2ccccc12)C(=O)N[C@@H](CC(C)C)C(=O)N[C@H](C(=O)N[C@@H](CCC(=O)O)C(=O)N[C@@H](Cc1c[nH]cn1)C(=O)N[C@@H](CCCCN)C(=O)N[C@H](C(=O)N[C@H](C(=O)N[C@@H](CC(=O)O)C(=O)O)[C@@H](C)O)[C@@H](C)CC)[C@@H](C)CC` [Compound 12] (HELM PEPTIDE1{H.[Aib].E.G.T.F.T.S.E.L.A.T.I.L.D.K.L.A.A.R.D.F.I.A.W.L.I.E.H.K.I.T.D}|PEPTIDE2{[O=C(O)CCCCCCCCCCCCCCCCC(=O)[*:2]].[gGlu]}$PEPTIDE1,PEPTIDE2,16:R3-2:R2$$$V2.0), the EC50 under setting [1] was 0.11 nM.
In the case of `CC[C@H](C)[C@H](NC(=O)[C@H](Cc1ccccc1)NC(=O)[C@H](CC(=O)O)NC(=O)[C@H](CCCNC(=N)N)NC(=O)[C@H](C)NC(=O)[C@H](C)NC(=O)[C@H](CCCCN)NC(=O)[C@H](CCCCNC(=O)COCCOCCNC(=O)COCCOCCNC(=O)CC[C@H](NC(=O)CCCCCCCCCCCCCCCCCCC(=O)O)C(=O)O)NC(=O)[C@H](CC(=O)O)NC(=O)[C@H](CC(C)C)NC(=O)[C@@H](NC(=O)[C@@H](NC(=O)[C@H](C)NC(=O)[C@H](CC(C)C)NC(=O)[C@H](CCC(=O)O)NC(=O)[C@H](CO)NC(=O)[C@@H](NC(=O)[C@H](Cc1ccccc1)NC(=O)[C@H](CO)NC(=O)CNC(=O)[C@H](CCC(=O)O)NC(=O)C(C)(C)NC(=O)[C@@H](N)Cc1c[nH]cn1)[C@@H](C)O)[C@@H](C)O)[C@@H](C)CC)C(=O)N[C@@H](C)C(=O)N[C@@H](Cc1c[nH]c2ccccc12)C(=O)N[C@@H](CC(C)C)C(=O)N[C@H](C(=O)N[C@@H](CCC(=O)O)C(=O)N[C@@H](Cc1c[nH]cn1)C(=O)N[C@@H](CCCCN)C(=O)N[C@H](C(=O)N[C@H](C(=O)N[C@@H](CC(=O)O)C(=O)O)[C@@H](C)O)[C@@H](C)CC)[C@@H](C)CC` [Compound 43] (H-H[Aib]EGSFTSELATILDK([AEEA-AEEA-γGlu-C20 diacid])KAARDFIAWLIEHKITD-OH), the EC50 under setting [1] turned out to be 0.15 nM.

Source of the values: patent publication US11395847B2, “Acylated GLP-1/GLP-2 dual agonists” (Zealand Pharma A/S, priority 2016, dated 2022).
